{"source": "patent US20240262814A1", "about": "“MODULATORS OF TREX1” (Constellation Pharmaceuticals, Inc., priority 2021, published 2024)", "key": {"human TREX1": {"target": "T1, human TREX1 (Homo sapiens, UniProt Q9NSU2)", "T1 construct": "N-terminally His-Tev tagged full length human TREX1; made in house; host or cells: E. coli", "T1 sequence (Q9NSU2 1-314)": "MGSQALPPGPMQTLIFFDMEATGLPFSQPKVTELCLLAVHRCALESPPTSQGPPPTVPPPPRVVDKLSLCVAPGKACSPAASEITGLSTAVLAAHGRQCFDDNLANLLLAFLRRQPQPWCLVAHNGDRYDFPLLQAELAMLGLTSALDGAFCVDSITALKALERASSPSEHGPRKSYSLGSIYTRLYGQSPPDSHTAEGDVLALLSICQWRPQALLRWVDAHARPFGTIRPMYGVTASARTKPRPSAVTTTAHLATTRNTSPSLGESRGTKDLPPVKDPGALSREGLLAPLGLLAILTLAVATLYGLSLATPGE", "assay": "hTREX1 Biochemical Assay (fluorescence, dsDNA substrate degradation)", "details": "full length human TREX1, 4 h pre-incubation, 18 h reaction at 25° C.", "method": "(§1) Degradation of the dsDNA liberates free fluorophore to produce a fluorescent signal. Specifically, 7.5 μL of N-terminally His-Tev tagged full length human TREX1 (expressed in E. coli and purified in house) in reaction buffer (50 mM Tris, 150 mM NaCl, 2 mM DTT, 0.1 mg/mL BSA, 0.01% (w/v) Tween-20, 5 mM MgCl2, pH 7.4) was added to a 384-well Black ProxiPlate Plus (PerkinElmer) which already contained compound (150 nL) at varying concentrations as a 10 point dose-response in DMSO. The plate was incubated at 25° C. for 4 hours. Reactions were initiated by adding 7.5 μL of dsDNA substrate (Strand A: 5′ TEX615/GCT AGG CAG 3′; Strand B: 5′ CTG CCT AGC/IAbRQSp (Integrated DNA Technologies)) in reaction buffer. Final concentrations were 4 pM TREX1, 60 nM dsDNA substrate in reaction buffer with 1.0% DMSO (v/v). After 18 hours at 25° C., reactions were quenched by the addition of 2 p L of 500 mM EDTA. Final concentrations in the quenched reaction were 3.5 pM TREX1, 53 nM DNA and 59 mM EDTA in a volume of 17 μL. After a 5-minute incubation at room temperature, plates were read in an EnVision plate reader (PerkinElmer) measuring fluorescence at 615 nm following excitation w/ 570 nm light. IC50 values were calculated by comparing the measured fluorescence at 615 nm relative to control wells pre-quenched w/ EDTA (100% inhibition) and no inhibitor (0% inhibition) controls as using non-linear least square four parameter fits and either Genedata or GraphPad Prism (GraphPad Software, Inc.)."}, "mouse TREX1": {"target": "T2, mouse TREX1 (Mus musculus, UniProt Q91XB0)", "T2 construct": "N-terminally His-Tev tagged full length mouse TREX1; made in house; host or cells: E. coli", "T2 sequence (Q91XB0 1-314)": "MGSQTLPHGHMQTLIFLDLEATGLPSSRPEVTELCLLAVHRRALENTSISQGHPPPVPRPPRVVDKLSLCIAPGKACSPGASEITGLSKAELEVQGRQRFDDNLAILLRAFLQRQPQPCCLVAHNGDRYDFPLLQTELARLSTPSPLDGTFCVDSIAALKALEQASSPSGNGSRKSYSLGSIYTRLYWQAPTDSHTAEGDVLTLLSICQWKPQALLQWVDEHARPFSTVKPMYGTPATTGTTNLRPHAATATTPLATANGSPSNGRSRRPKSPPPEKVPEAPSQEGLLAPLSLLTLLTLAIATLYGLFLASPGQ", "assay": "mTREX1 Biochemical Assay (fluorescence, dsDNA substrate degradation)", "details": "full length mouse TREX1, 4 h pre-incubation, 18 h reaction at 25° C.", "method": "as §1, with “Specifically, 7.5 p L of N-terminally” for “Specifically, 7.5 μL of N-terminally”, “full length mouse TREX1 (expressed” for “full length human TREX1 (expressed”, “concentrations were 6 pM TREX1,” for “concentrations were 4 pM TREX1,”, “reaction were 5.3 pM TREX1,” for “reaction were 3.5 pM TREX1,”, “of 17 p L. After a” for “of 17 μL. After a”"}, "human TREX2": {"target": "T3, human TREX2 (Homo sapiens, UniProt Q9BQ50)", "T3 construct": "human TREX2 (residues M44-A279, expressed in E. coli); made in house; host or cells: E. coli", "T3 sequence (Q9BQ50 44-279 isoform Q9BQ50-1)": "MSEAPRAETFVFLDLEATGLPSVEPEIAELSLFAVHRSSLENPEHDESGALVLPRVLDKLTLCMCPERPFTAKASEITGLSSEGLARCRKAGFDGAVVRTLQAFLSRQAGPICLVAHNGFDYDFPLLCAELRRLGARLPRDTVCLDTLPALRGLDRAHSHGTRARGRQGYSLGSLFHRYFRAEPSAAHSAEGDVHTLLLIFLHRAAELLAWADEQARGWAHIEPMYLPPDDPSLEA", "assay": "hTREX2 Biochemical Assay (selectivity hTREX1 vs hTREX2)", "details": "biochemical selectivity for hTREX1 vs hTREX2", "method": "Degradation of the dsDNA liberates free fluorophore to produce a fluorescent signal. Specifically, 7.5 p L of N-terminally His-Tev tagged human TREX2 (residues M44-A279, expressed in E. coli and purified in house) in reaction buffer (50 mM Tris, 150 mM NaCl, 2 mM DTT, 0.1 mg/mL BSA, 0.01% (w/v) Tween-20, 5 mM MgCl2, pH 7.4) was added to a 384-well Black ProxiPlate Plus (PerkinElmer) which already contained compound (150 nL) at varying concentrations as a 10 point dose-response in DMSO. The plate was incubated at 25° C. for 4 hours. Reactions were initiated by adding 7.5 μL of dsDNA substrate (Strand A: 5′ TEX615/GCT AGG CAG 3′; Strand B: 5′ CTG CCT AGC/IAbRQSp (IDT)) in reaction buffer. Final concentrations were 50 pM TREX2, 60 nM dsDNA substrate in reaction buffer with 1.0% DMSO (v/v). After 18 hours at 25° C., reactions were quenched by the addition of 2 μL of 500 mM EDTA. Final concentrations in the quenched reaction mixture were 44 pM TREX2, 53 nM DNA and 59 mM EDTA in a volume of 17 μL. After a 5-minute incubation at room temperature, plates were read in an EnVision plate reader (PerkinElmer) measuring fluorescence at 615 nm following excitation w/ 570 nm light. IC50 values were calculated by comparing the measured fluorescence at 615 nm relative to control wells pre-quenched w/ stop buffer (100% inhibition) and no inhibitor (0% inhibition) controls as using non-linear least square four parameter fits and either Genedata or GraphPad Prism (GraphPad Software, Inc.)."}}, "data": [{"smiles": "C[C@H](c1nc(C(=O)Nc2cnoc2)c(O)c(=O)n1C)[C@H](c1ccccc1)c1ccccc1C(F)(F)F", "note": "(single isomer, unassigned) [Example 14 Isomer 3, 5-Hydroxy-N-(isoxazol-4-yl)-1-methyl-6-oxo-2-(1-phenyl-1-(2-(trifluoromethyl)phenyl)propan-2-yl)-1,6-dihydropyrimidine-4-carboxamide]", "values": [{"measurement": "IC50", "setting": "human TREX1", "value": "> 100", "unit": "nM"}, {"measurement": "IC50", "setting": "mouse TREX1", "value": "> 10", "unit": "nM"}]}, {"smiles": "C[C@H](c1nc(C(=O)Nc2cnoc2)c(O)c(=O)n1C)[C@H](c1ccccc1)c1ccccc1Cl", "note": "(single isomer, unassigned) [Example 2 Isomer 1, 2-[1-(2-chlorophenyl)-1-phenylpropan-2-yl]-5-hydroxy-1-methyl-N-(1,2-oxazol-4-yl)-6-oxopyrimidine-4-carboxamide]", "values": [{"measurement": "IC50", "setting": "human TREX1", "value": "1 to 10", "unit": "nM"}, {"measurement": "IC50", "setting": "mouse TREX1", "value": "> 10", "unit": "nM"}, {"measurement": "hTREX1 vs hTREX2 selectivity", "setting": "human TREX2", "value": "A (A = <25 fold selective for hTREX1)"}]}, {"smiles": "CC(c1nc(C(=O)Nc2cnoc2)c(O)c(=O)n1C)C(c1ccccc1)c1ccc(Cl)cc1C#N", "note": "(single isomer, unassigned) [Example 9 Isomer 3]", "values": [{"measurement": "IC50", "setting": "human TREX1", "value": "> 100", "unit": "nM"}, {"measurement": "IC50", "setting": "mouse TREX1", "value": "> 10", "unit": "nM"}]}, {"smiles": "Cn1c([C@@H](CF)C(c2ccccc2)c2ccccc2)nc(C(=O)Nc2cnoc2)c(O)c1=O", "note": "(single isomer, unassigned) [Example 18 Isomer 2, 2-(3-fluoro-1,1-diphenylpropan-2-yl)-5-hydroxy-N-(isoxazol-4-yl)-1-methyl-6-oxo-1,6-dihydropyrimidine-4-carboxamide]", "values": [{"measurement": "IC50", "setting": "human TREX1", "value": "> 100", "unit": "nM"}, {"measurement": "IC50", "setting": "mouse TREX1", "value": "> 10", "unit": "nM"}]}, {"smiles": "CC(c1nc(C(=O)Nc2cnoc2)c(O)c(=O)n1C)C(c1ccc(F)c(F)c1)c1ccccc1C#N", "note": "(single isomer, unassigned) [Example 12 Isomer 2]", "values": [{"measurement": "IC50", "setting": "human TREX1", "value": "> 100", "unit": "nM"}, {"measurement": "IC50", "setting": "mouse TREX1", "value": "> 10", "unit": "nM"}]}, {"smiles": "C[C@H](c1nc(C(=O)Nc2cnoc2)c(O)c(=O)n1C)[C@H](c1ccccc1)c1ccc(C(=O)N(C)C)cc1C#N", "note": "(single isomer, unassigned) [Example 16 Isomer 1, 2-(1-(2-cyano-4-(dimethylcarbamoyl)phenyl)-1-phenylpropan-2-yl)-5-hydroxy-N-(isoxazol-4-yl)-1-methyl-6-oxo-1,6-dihydropyrimidine-4-carboxamide]", "values": [{"measurement": "IC50", "setting": "human TREX1", "value": "1 to 10", "unit": "nM"}, {"measurement": "IC50", "setting": "mouse TREX1", "value": "> 10", "unit": "nM"}]}, {"smiles": "CC(c1nc(C(=O)Nc2cnoc2)c(O)c(=O)n1C)C(c1ccc(F)cc1F)c1ccccc1C#N", "note": "(single isomer, unassigned) [Example 13 Isomer 4]", "values": [{"measurement": "IC50", "setting": "human TREX1", "value": "> 100", "unit": "nM"}, {"measurement": "IC50", "setting": "mouse TREX1", "value": "> 10", "unit": "nM"}]}, {"smiles": "C[C@H](c1nc(C(=O)Nc2cnoc2)c(O)c(=O)n1C)[C@H](c1ccccc1)c1ccc(C(=O)N(C)C)cc1C#N", "note": "(single isomer, unassigned) [Example 16 Isomer 2, 2-(1-(2-cyano-4-(dimethylcarbamoyl)phenyl)-1-phenylpropan-2-yl)-5-hydroxy-N-(isoxazol-4-yl)-1-methyl-6-oxo-1,6-dihydropyrimidine-4-carboxamide]", "values": [{"measurement": "IC50", "setting": "human TREX1", "value": "> 100", "unit": "nM"}, {"measurement": "IC50", "setting": "mouse TREX1", "value": "> 10", "unit": "nM"}]}, {"smiles": "CC(c1nc(C(=O)Nc2cnoc2)c(O)c(=O)n1C)C(c1ccccc1)c1cc(F)ccc1C#N", "note": "(single isomer, unassigned) [Example 6 Isomer 2]", "values": [{"measurement": "IC50", "setting": "human TREX1", "value": "> 100", "unit": "nM"}, {"measurement": "IC50", "setting": "mouse TREX1", "value": "> 10", "unit": "nM"}]}, {"smiles": "CC(c1nc(C(=O)Nc2cnoc2)c(O)c(=O)[nH]1)C(c1ccccc1C#N)c1ccccc1C#N", "note": "(single isomer, unassigned) [Example 5 Isomer 2, 2-(1,1-bis(2-cyanophenyl)propan-2-yl)-5-hydroxy-N-(isoxazol-4-yl)-6-oxo-1,6-dihydropyrimidine-4-carboxamide]", "values": [{"measurement": "IC50", "setting": "human TREX1", "value": "1 to 10", "unit": "nM"}, {"measurement": "IC50", "setting": "mouse TREX1", "value": "> 10", "unit": "nM"}]}, {"smiles": "CC(c1nc(C(=O)Nc2cnoc2)c(O)c(=O)n1C)C(c1ccccc1)c1cc(C(=O)N(C)C)ccc1C#N", "note": "(single isomer, unassigned) [Example 17 Isomer 4]", "values": [{"measurement": "IC50", "setting": "human TREX1", "value": "10 to 100", "unit": "nM"}, {"measurement": "IC50", "setting": "mouse TREX1", "value": "> 10", "unit": "nM"}]}, {"smiles": "CC(c1nc(C(=O)Nc2cnoc2)c(O)c(=O)n1C)C(c1cc(F)cc(F)c1)c1ccccc1C#N", "note": "(single isomer, unassigned) [Example 11 Isomer 1]", "values": [{"measurement": "IC50", "setting": "human TREX1", "value": "> 100", "unit": "nM"}, {"measurement": "IC50", "setting": "mouse TREX1", "value": "> 10", "unit": "nM"}]}, {"smiles": "CC(c1nc(C(=O)Nc2cnoc2)c(O)c(=O)n1C)C(c1ccccc1)c1cc(C(=O)N(C)C)ccc1C#N", "note": "(single isomer, unassigned) [Example 17 Isomer 2]", "values": [{"measurement": "IC50", "setting": "human TREX1", "value": "> 100", "unit": "nM"}, {"measurement": "IC50", "setting": "mouse TREX1", "value": "> 10", "unit": "nM"}]}, {"smiles": "CC(c1nc(C(=O)Nc2cnoc2)c(O)c(=O)n1C)C(c1ccccc1)c1ccc(F)cc1C#N", "note": "(single isomer, unassigned) [Example 7 Isomer 3]", "values": [{"measurement": "IC50", "setting": "human TREX1", "value": "> 100", "unit": "nM"}, {"measurement": "IC50", "setting": "mouse TREX1", "value": "> 10", "unit": "nM"}]}, {"smiles": "CC(c1nc(C(=O)Nc2cnoc2)c(O)c(=O)n1C)C(c1ccccc1)c1cc(Cl)ccc1C#N", "note": "(single isomer, unassigned) [Example 8 Isomer 1]", "values": [{"measurement": "IC50", "setting": "human TREX1", "value": "> 100", "unit": "nM"}, {"measurement": "IC50", "setting": "mouse TREX1", "value": "> 10", "unit": "nM"}]}]}
